One data set has as its system p65 (subunit of NF-κB). Kind of data set: Western blot of p65 phosphorylation in stimulated NHEKs. The format is cell-based, human. The settings on record: 5 μM, 1 hour. As to the method: (§1) Primary normal human epidermal keratinocytes (NHEKs) were isolated from nine healthy donors as described previously.^13 The keratinocytes were plated in 6-well plates and cultured in keratinocyte SFM (Gibco, ThermoFisher Scientific, Waltham, MA, USA) supplemented with growth factors and 5 μg/ml Gentamicin (Gibco) at 37° C. in a humidified incubator containing 5% CO2 until 60-70% confluency. Subsequently, the keratinocytes were starved for 24 hours in keratinocyte SFM medium without growth factors before the initiation of experiments.
(§2) PBS-washed keratinocytes were added cell lysis buffer with complete Protease Inhibitor Cocktail and phenylmethylsulphonyl fluoride (Sigma-Aldrich). […] The protein concentration was determined by Bradford Protein Assay.
(§3) A total of 20 μg protein extract for each sample was loaded on 10% mini-PROTEAN TGX PreCast Gel (Bio-Rad, Hercules, CA, USA) and separated by gel electrophoresis using Mini Trans-Blot Cell (Bio-Rad). […] Protein bands were detected with an enhanced chemiluminescence (ECL) reaction using Clarity Western ECL Substrate (Bio-Rad) and digitally imaged with C-DiGit Blot Scanner (LI-COR, Lincoln, NE, USA). To normalize the protein expression to β-actin levels, the membranes were stripped and reprobed with an anti-β-actin antibody (A1978; Sigma-Aldrich), which was detected by HRP-conjugated anti-mouse IgG (p0447; Dako, Glostrup, Denmark). […]

The test system of the next data set is STAT3. Briefly: Western blot of STAT3 phosphorylation in stimulated NHEKs. Format: cell-based, human. The settings on record: 5 μM, TNF/IFNγ or TNF/IL-4 stimulation, 1 hour. The protocol:
as §1, §2, §3

For the next data set, the system named is AD-like inflammation. Briefly: MC903 model at independent testing facility (alternative MC903 regimen). The settings on record: oral 20, 50 and 100 mg/kg. Format: in vivo, BALB/c mice. As to the method: To evaluate the feasibility of orally administered Compound I, mice were challenged with 2.5 nmol MC903 for six days and administered 100 mg/kg Compound I by oral gavage once daily throughout the experiment.

In data set [1] the test system is MC903-induced AD-like skin inflammation. Briefly: MC903-induced atopic dermatitis mouse model. The format is in vivo, Female Balb/cAnNRj mice. The settings on record: for body weight loss: topical treatment, MC903 model. The protocol: Punch biopsies were stored in 750 μL RNAlater-ICE (ThermoFisher) at −80° C. for 20 minutes and overnight at −20° C. Then, the biopsies were added to 175 μL SV RNA lysis buffer with β-mercaptoethanol (SV Total RNA Isolation System; Promega) followed by homogenization using TissueLyser (Qiagen, Hilden, Germany). The remaining steps including RNA purification and DNase treatment were conducted following the manufacturer's instructions.
cDNA was generated using total RNA, TaqMan Reverse Transcription Reagents with random hexamers (ThermoFisher) and Peltier Thermal Cycler-200 (MJ Research Inc, Waltham, MA, USA) following the manufacturer's instructions. Real-time PCR was carried out with 20 ng cDNA per 20 μL reaction in StepOnePlus Real-Time PCR system (ThemoFisher) using TaqMan Universal PCR Master Mix, primers and probes (ThermoFisher) for TNF (Hs00174128_m1), ILIB (Hs01555410_m1), IL6 (Hs00174131_m1), TSLP (Hs00263639_m1), CCL17 (Hs00171074_m1), CCL22 (Hs01574247_m1), Il1b (Mm00434228_m1), Il4 (Mm00445259_m1), Il6 (Mm00446190_m1), Il13 (Mm00434204_m1) RPLPO (Hs99999902_m1) and Gapdh (Mm99999915_m1). Three technical replicates for each sample underwent real-time PCR; 2 minutes at 50° C. and 10 minutes at 95° C. followed by 40 cycles of 15 seconds at 95° C. and 1 minute at 60° C. The standard curve method with StepOne Software v2.1 and reference genes (RPLPO and Gapdh) were used to obtain normalised relative expression levels of target genes.^17
Female Balb/cAnNRj (8 weeks old) mice were purchased from Janvier Labs (Le Genest-Saint-Isle, France), and housed in animal facilities at 19-25° C. with 12-hour light/dark cycles and free access to laboratory rodent diet and water. The mice had at least 1 week acclimation period before the experiments started.
Mice were randomly divided to receive: vehicle and drug-vehicle (negative control); MC903 (MedChemExpress, Monmouth Junction, NJ, USA) and drug-vehicle (disease control); MC903 and topical or oral Compound I (Compound I treatment groups); or MC903 and topical dexamethasone (positive control; purchased from Sigma-Aldrich). Four to eight mice were allocated to each group, totalling 76 mice for all experiments.
To induce AD-like skin inflammation, 1 or 2.5 nmol of MC903 in 25 μL absolute ethanol was topically applied once daily to the ventral and dorsal surface of the right ear for six consecutive days. After MC903 challenge, the mice were treated with topical Compound I (1 mg in 25 μL ethanol), oral Compound I (100 mg/kg), topical dexamethasone (20 nmol in 25 μl ethanol), or drug-vehicle (topical ethanol or oral 5% kleptose [HPB, Roquette Pharma, Lestrem, France]). The topical treatments were applied 2 hours post-MC903 challenge, whereas the oral treatments were administered by oral gavage immediately post-MC903 challenge. At the end of the experiment on day 9, clinical photos of the ears were taken and the mice were euthanised by cervical dislocation. Two punch biopsies (4 mm) from the ear were collected for RNA isolation and histological assessment. Ear thickness, the primary clinical endpoint for inflammation, was measured daily with a digital calliper (Mitutoyo Corporation, Kawasaki, Japan), and body weight was measured throughout the study to monitor the welfare of mice. During the experimental procedures, the mice were anesthetized with 2% isoflurane.
Four-millimetres punch biopsies from the ear were fixed in 4% formaldehyde overnight at 4° C., paraffin-embedded, and serially sliced into 4 μm sections subjected to staining procedures. For haematoxylin & eosin (HE) staining, a standard protocol was followed. To detect mast cells, sections were stained with 0.1% toluidine blue solution (Sigma-Aldrich) at pH 2.3 and room temperature for 3 minutes. […]

Another data set deals with stimulated NHEKs. The settings on record: previous concentration studies; used concentration 5 μM; cited from earlier work.
For the next data set, the system named is STAT1. Briefly: Western blot of STAT1 phosphorylation in stimulated NHEKs. The format is cell-based, human. The settings on record: 5 μM, 1 hour. As to the method: as §1, §2, §3
A short description of data set [2]: Skin concentration in punch biopsies of hidradenitis suppurativa subjects, week 16. The format is in vivo, human. The settings on record: oral dosing at 250 mg; skin (16 weeks daily) vs plasma (single dose). The text has this:
A 16-week treatment, randomized, double-blind, proof-of-concept study was designed to assess the safety and efficacy of Compound I compared to placebo in treating hidradenitis suppurativa. Eligible subjects completed an up-to 4-week screening phase and sequentially be randomized 2:1 to one of two cohorts, treatment cohort (n=10) or placebo-control cohort (n=5), in a 16-week treatment phase followed by a 4-week observational follow-up phase. In the 16-week treatment phase, subjects randomized to the treatment group receive 250 mg Compound I free base in the form of a tablet administered orally once daily. The 250 mg dose was selected based on the results of an earlier oncology trial conducted with doses in excess of 1000 mg/day as a safe minimal dose from which to conduct dose escalation if required. Subjects randomized to the placebo-control group receive placebo treatment once daily (microcrystalline cellulose, mannitol, crospovidone, Opadry II red, magnesium stearate, colloidal silicon dioxide).
The accumulation of Compound I in the skin of human hidradenitis suppurativa of subjects in the treatment cohort was determined. […] FIG. 7 is a graph showing the concentrations of Compound I found in the biopsied tissues in subjects grouped according to their clinical response to Compound I therapy. […]

The subject of the next data set is STAT6. Kind of data set: Western blot of STAT6 phosphorylation in stimulated NHEKs. Format: cell-based, human. The settings on record: 5 μM, TNF/IL-4 stimulation, 1 hour. As to the method:
as §1, §2, §3

For data set [3], the system named is primary normal human epidermal keratinocytes (NHEKs) stimulated with TNF/IFNγ or TNF/IL-4. Kind of data set: RT-qPCR of AD-related gene expression in cytokine-stimulated primary human keratinocytes. The format is cell-based. The settings on record: 5 μM, 24 hours. The protocol:
as §1
Keratinocytes were washed with phosphate-buffered saline (PBS; Gibco) followed by RNA extraction using SV 96 Total RNA Isolation System (Promega, Madison, WI, USA) per the manufacturers' instructions. NanoDrop 2000 Spectrophotometer (ThermoFisher) was used to determine the RNA concentration and purity.
cDNA was generated using total RNA, TaqMan Reverse Transcription Reagents with random hexamers (ThermoFisher) and Peltier Thermal Cycler-200 (MJ Research Inc, Waltham, MA, USA) following the manufacturer's instructions. […]
The statistical significance threshold was set at P<0.05. Differences between treatment groups in clinical endpoints, mRNA (qPCR) and protein levels (western blot) were analysed by unpaired t-tests for mice and paired t-tests for keratinocytes. […]

The nature of data set [4]: Plasma pharmacokinetics after single oral dose in healthy male subjects. The settings on record: single oral dose 250 mg, read-out: Cmax (median). Format: in vivo, human. As to the method:
The skin accumulation found in this study was compared to plasma levels of Compound I determined in a previous study in healthy human volunteers. Six healthy male subjects were given a single oral dose of 250 mg Compound I, and plasma samples were collected pre-dose and at 0.25, 0.5, 0.75, 1, 1.5, 2, 2.5, 3, 4, 6, 8, 10, 12, 18, 24, 30, 36, 48, 72 and 96 hours after dosing.

For data set [5] the following is noted: psoriasis and hidradenitis suppurativa patients; cited from earlier work.
Setting [6] is: topical, 1 nmol MC903, ear biopsies.

For `CN(C)c1cc2c(cc1Sc1nc3c(N)nccc3n1CCNCC(C)(C)C)OCO2` [Compound I], in the data set with p65 (subunit of NF-κB), the “phosphorylation of p65” value is “no significant effects”. For the same compound, the “phosphorylation of STAT3” value in the data set with STAT3 is listed as “significantly suppressed”. Also, the “alleviation of AD-like inflammation” value in the data set on AD-like inflammation is given as “dose-dependent improvement”. Also, the erythema entry in [1] (oral 100 mg/kg, 2.5 nmol MC903) is given as “visibly reduced erythema”. For the same compound, in data set [1] (oral gavage 100 mg/kg once daily, 2.5 nmol MC903), the “reduction of ear thickening compared with drug-vehicle” value came to 28%. The “reduction in ear thickness compared with drug-vehicle” value in data set [1] (topical 1 mg once daily, 1 nmol MC903, day 9) was 55%. Further, the “suppression of MC903-induced ear thickening” value in [1] (topical 1 mg once daily, 2.5 nmol MC903, day 9) is 50%. In data set [1], the body weight loss result was “significantly less weight loss compared with dexamethasone”. In [1] (topical, 1 nmol MC903, RNA sequencing and qPCR), the “cytokine expression of Il1b, Il4, Il6 and Il13 in ear tissue compared with drug-vehicle” value is listed as “significantly reduced”. In addition, in [1] (topical, 1 nmol MC903, day 9), the erythema entry is “visibly reduced erythema”. For the same compound, in data set [1] (setting [6]), the “epidermal and dermal thickness (histology)” value is listed as “significantly decreased”; the “immune cell infiltration into the skin (mast cells, Ly6g+ neutrophils, CD4+ T-cells)” value is “significantly suppressed”; the “total number of cells within histological sections” value is “significantly reduced”. For the same compound, in data set [1] (topically delivered, summary of 1 and 2.5 nmol MC903 experiments), the “reduction of ear thickness” value is given as 50-54%. In the data set on stimulated NHEKs, the “toxicity in stimulated NHEKs” value is listed as 3-6%. Besides, the “phosphorylation of STAT1” value with STAT1 is “no significant effects”. Moreover, the “accumulation in the skin relative to plasma” value in data set [2] was “approximately 100,000 fold”. Further, the “reduction of phosphorylation of STAT6” value in the data set with STAT6 is given as ~ 20%. In addition, the “expression of AD-associated cytokines (TNF, IL1B, IL6) and chemokines (CCL17, CCL22)” value in data set [3] (TNF/IFNγ or TNF/IL-4 stimulation, vs stimulated/vehicle- and stimulated/dexamethasone-treated NHEKs) was “robustly inhibited the expression”. Besides, in data set [3] (stimulated NHEKs), the “expression of TSLP” value is “suppressed”. In addition, the Cmax in [4] was 46 nM. Also, the “tolerability of oral treatment” value in data set [5] was “well-tolerated”.
Turning to `C[C@@H]1C[C@H]2[C@@H]3CCC4=CC(=O)C=C[C@]4(C)[C@@]3(F)[C@@H](O)C[C@]2(C)[C@@]1(O)C(=O)CO` [dexamethasone, reference compound], the body weight loss result in [1] is listed as “lost significantly more weight than Compound I-treated mice”.

These data come from patent US20260240822A1, “Methods and Compositions for Treating Atopic Dermatitis” (Regranion, LLC, priority 2023, published 2026).
